In patent publication US7122569B2, “Ethylene glycol esters as photoactive agents” (priority 1997, dated 2006):

Columns and labels:
[1] = test system: dendritic cell line D2SC/1; assay: In vitro photocytotoxicity on dendritic cell line D2SC/1, 690 nm light 5 J/cm^2, MTT; type: cell-based; settings: dendritic cells, 5% fetal calf serum, 690 nm 5 J/cm^2
Method: (§1) Either L1210 cells or the dendritic cell line D2SC/1 was incubated for one hour at 37° C. with either A-EA6 or BPD-MA. After removal of excess drug, the cells were exposed to 690 nm light at 5 J/cm^2 light. Cell survival was determined 18–24 hours later using the MTT colorimetric assay described in Example 5. Percent cells killed was calculated by reference to cells exposed to light only. […] The open circles represent A-EA6 plus serum; the closed circles represent BPD-MA plus serum; open squares represent A-EA6 in the absence of serum; and closed squares represent BPD-MA in the absence of serum.

[2] = test system: mitogenic pathway kinase p70 S6K; assay: PDT effect on mitogenic pathway kinase in HL-60 cells; type: cell-based; settings: sublethal concentrations
Excerpt: (§2) The conditions of the study set forth in Example 11 were repeated using HL-60 cells as the target and comparing the effects of A-EA6 and BPD-MA on cytotoxicity, on the mitogenic pathway kinase p70 S6K, and on the stress pathway kinases c-jun and HSP27.

caspases = assay: Caspase activation in HL-60 cells after PDT; type: cell-based
Method: The effect on caspase activation in HL-60 cells was also measured. […] This effect is desirable as it is associated with apoptosis. Using apoptosis to remove unwanted cells causes the least effect on surrounding normal cells and tissues.

L1210 cells = assay: In vitro photocytotoxicity on L1210 cells, 690 nm light 5 J/cm^2, MTT; type: cell-based, murine; settings: 690 nm 5 J/cm^2
Method: as §1

HL-60 cells = assay: DNA fragmentation in HL-60 cells after PDT; type: cell-based
MHC I receptors = assay: Surface expression of MHC I receptors on dendritic cells after PDT, flow cytometry; type: cell-based; settings: 690 nm 5 J/cm^2, 3 hours post-treatment
Method: The cells were treated with 690 nm light at 5 J/cm^2 and then labeled with the appropriate antibody 3 hours post-treatment and assessed by flow cytometry. The results were measured as the percent of the mean channel fluorescence intensity for light-treated control cells.

[3] = test system: antigen-induced ear swelling; assay: Immunomodulatory activity, whole-body PDT, suppression of ear swelling; type: in vivo, mice; settings: red LED light 15 J/cm^2
Method: Flanks of control and test mice were painted with the antigen DMFB and their ears were challenged 5 days later by pasting with the same compound. […] The percent suppression of ear swelling was calculated in comparison to controls.

[4] = test system: stress pathway kinases c-jun and HSP27; assay: PDT effect on stress pathway kinases in HL-60 cells; type: cell-based; settings: sublethal concentrations
Excerpt: as §2

M1 tumors = assay: In vivo photodynamic therapy in mice harboring M1 tumors, tumor-free on day 7; settings: 1 mg/kg IV, 50 J/cm^2 690 nm
Excerpt: This was followed by whole body irradiation with 50 J/cm^2 of 690 nm laser light at various times after administration of the drug.

C=Cc1c(C)c2cc3nc(cc4[nH]c(cc5nc(cc1[nH]2)C(C)=C5CCC(=O)OCCO)c(CCC(=O)OCCO)c4C)C1(C)C3=CC=C(C(=O)OC)C1C(=O)OC (stereo not shown) [A-EA6]
LD50 [1]: 2.7 ng/mL
inhibition of mitogenic pathway kinases compared with BPD-MA [2]: stronger inhibition of the mitogenic pathway kinases
caspase activation compared with BPD-MA (caspases): stronger activation of caspases
cytotoxicity compared with BPD-MA (L1210 cells; absence of serum): comparable cytotoxicity to BPD-MA
cytotoxicity compared with BPD-MA (L1210 cells; presence of serum): markedly more toxic
percent DNA fragmentation compared with BPD-MA (HL-60 cells): effective at lower concentrations than BPD-MA
reduction of MHC I mean channel fluorescence vs light-treated control cells (MHC I receptors; 1 ng/ml): approximately 25%
reduction of MHC I mean channel fluorescence vs light-treated control cells (MHC I receptors; 2.5 ng/ml): approximately 25%
Percent suppression of ear swelling ([3]; 0.3 mg/kg IV): 59%
Percent suppression of ear swelling ([3]; 1.0 mg/kg IV): 68%
activation of stress pathway kinases compared with BPD-MA [4]: stronger activation of the stress pathway kinases
Day 7 tumor-free animals (M1 tumors; irradiation 15 min post i.v.): 2/2
Day 7 tumor-free animals (M1 tumors; irradiation 30 min post i.v.): 6/6
